Data as given in article PMC9362872 (Journal of Clinical Oncology, 2022).

What was measured:
[1] = Projected human oral half-life; conditions: projection before first-in-human dosing
[2] = 28-day GLP dog toxicology studies; format: in vivo; conditions: dog (most sensitive species)
[3] = format: in vivo, human
[4] = format: in vivo, human; remark: listed apart in the source
[5] = multiple doses of 150 mg and 300 mg once daily, individual patients
[6] = RP2D 600 mg twice a day (20 patients), any grade

In the case of `C=C(F)C(=O)N1CCN(c2nc(OC[C@@H]3CCCN3C)nc3c2CCN(c2cccc4cccc(Cl)c24)C3)C[C@@H]1CC#N` [Adagrasib], the “projected human oral t1/2” value [1] is reported as “approximately 15 hours”, the “highest nonseverely toxic dose (HNSTD)” value [2] is reported as 25 mg/kg/day and the PTR [3, 5] is reported as “approximately three”. The drug accumulation [3, 5] was “approximately three- to four-fold”, the accumulation of adagrasib ([3]; multiple doses of 600 mg twice a day, steady state) was “approximately five- to six-fold” and the DLTs ([4]; 150 mg, 300 mg, 600 mg once daily, one patient each) was “No DLTs”. The “patients who experienced DLTs” value ([4]; 600 mg twice a day, DLT-evaluable patients) was “three of the 18”, the “patients who experienced a DLT” value ([4]; 600 mg twice a day, first cohort of six evaluable patients) was “one patient” and the “TRAE fatigue, grade 3/4” value ([4]; RP2D 600 mg twice a day) was 15.0%. For the same molecule, the TRAE diarrhea [4, 6] was 70.0%, the TRAE fatigue [4, 6] was 45.0% and the TRAE nausea [4, 6] was 80.0%. For the same molecule, the TRAE vomiting [4, 6] was 50.0%, the maximum tolerated dose ([4]; all dose cohorts) was “No maximum tolerated dose was formally defined” and the “patients who experienced one or more DLTs” value ([4]; all dose levels, 23 DLT-evaluable patients) was 21.7%. The “recommended phase II dose (RP2D)” value ([4]; oral, based on safety, tolerability and PK) was 600 mg twice a day.
